# Results taken from patent US11725011B2, “Bicyclic urea kinase inhibitors and uses thereof” (The Broad Institute, Inc., priority 2016, dated 2023).
# Assays:
# Test in all cases: KINOMEscan
# Assay type in all cases: binding
# Conditions in all cases: 1 uM
# ANKK1 = ANKK1 (Homo sapiens (Human), UniProt Q8NFD2)
# ASK2 = ASK2 (Homo sapiens (Human), UniProt O95382)
# AURKA = AURKA (Homo sapiens (Human), UniProt O14965)
# AXL = AXL (Homo sapiens (Human), UniProt P30530)
# BRSK1 = BRSK1 (Homo sapiens (Human), UniProt Q8TDC3)
# CDK4-cyclinD3 = CDK4-cyclinD3 (Homo sapiens (Human), UniProt P11802)
# CLK3 = CLK3 (Homo sapiens (Human), UniProt P49761)
# CLK4 = CLK4 (Homo sapiens (Human), UniProt Q9HAZ1)
# CSF1R = CSF1R (Homo sapiens (Human), UniProt P07333)
# CSF1R, sequence (P07333 20-972): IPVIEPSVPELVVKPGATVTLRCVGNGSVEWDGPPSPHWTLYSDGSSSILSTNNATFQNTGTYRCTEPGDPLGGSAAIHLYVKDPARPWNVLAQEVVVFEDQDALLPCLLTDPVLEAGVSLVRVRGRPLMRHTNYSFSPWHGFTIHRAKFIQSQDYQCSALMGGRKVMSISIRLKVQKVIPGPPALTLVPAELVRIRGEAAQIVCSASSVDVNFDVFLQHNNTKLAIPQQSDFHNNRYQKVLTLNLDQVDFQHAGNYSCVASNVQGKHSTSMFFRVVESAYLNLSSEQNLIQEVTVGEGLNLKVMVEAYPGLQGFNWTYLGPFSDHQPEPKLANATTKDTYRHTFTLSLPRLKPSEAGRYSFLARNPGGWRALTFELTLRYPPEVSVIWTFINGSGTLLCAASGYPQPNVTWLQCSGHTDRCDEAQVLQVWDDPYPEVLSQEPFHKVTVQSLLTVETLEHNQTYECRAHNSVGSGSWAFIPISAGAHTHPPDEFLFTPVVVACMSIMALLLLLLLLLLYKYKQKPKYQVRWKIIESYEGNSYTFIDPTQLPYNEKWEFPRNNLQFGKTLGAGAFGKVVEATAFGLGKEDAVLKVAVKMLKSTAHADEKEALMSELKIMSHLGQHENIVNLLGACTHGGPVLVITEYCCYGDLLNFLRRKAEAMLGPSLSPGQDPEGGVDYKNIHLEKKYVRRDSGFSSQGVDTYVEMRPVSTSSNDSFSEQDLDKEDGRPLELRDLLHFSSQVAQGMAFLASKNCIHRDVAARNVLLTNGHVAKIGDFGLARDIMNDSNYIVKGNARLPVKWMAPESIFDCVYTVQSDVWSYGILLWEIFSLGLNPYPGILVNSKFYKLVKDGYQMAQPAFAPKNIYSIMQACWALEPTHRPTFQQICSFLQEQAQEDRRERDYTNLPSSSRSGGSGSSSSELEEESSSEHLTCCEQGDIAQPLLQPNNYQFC
# CSNK1G1 = CSNK1G1 (Homo sapiens (Human), UniProt Q9HCP0)
# CSNK1G1, sequence (Q9HCP0 whole entry): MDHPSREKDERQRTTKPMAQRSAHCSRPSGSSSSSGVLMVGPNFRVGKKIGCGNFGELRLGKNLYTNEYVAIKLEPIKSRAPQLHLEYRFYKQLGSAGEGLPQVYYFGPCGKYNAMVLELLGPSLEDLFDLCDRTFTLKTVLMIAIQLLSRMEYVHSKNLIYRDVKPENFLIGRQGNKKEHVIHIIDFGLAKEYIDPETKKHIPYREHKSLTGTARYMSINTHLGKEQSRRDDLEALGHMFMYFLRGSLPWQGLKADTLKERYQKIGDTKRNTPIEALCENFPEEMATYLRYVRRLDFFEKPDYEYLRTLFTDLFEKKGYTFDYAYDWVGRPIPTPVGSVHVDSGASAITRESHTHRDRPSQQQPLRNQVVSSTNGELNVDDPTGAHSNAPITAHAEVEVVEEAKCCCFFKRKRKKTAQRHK
# DAPK3 = DAPK3 (Homo sapiens (Human), UniProt O43293)
# DRAK2 = DRAK2 (Homo sapiens (Human), UniProt O94768)
# EGFR (L861Q) = EGFR (L861Q) (Homo sapiens (Human), UniProt P00533, L861Q)
# EIF2AK1 = EIF2AK1 (Homo sapiens (Human), UniProt Q9BQI3)
# EPHA5 = EPHA5 (Homo sapiens (Human), UniProt P54756)
# EPHA8 = EPHA8 (Homo sapiens (Human), UniProt P29322)
# EPHB4 = EPHB4 (Homo sapiens (Human), UniProt P54760)
# ERK4 = ERK4 (Homo sapiens (Human), UniProt P31152)
# FAK = FAK (Homo sapiens (Human), UniProt Q05397)
# FAK, sequence (Q05397 whole entry): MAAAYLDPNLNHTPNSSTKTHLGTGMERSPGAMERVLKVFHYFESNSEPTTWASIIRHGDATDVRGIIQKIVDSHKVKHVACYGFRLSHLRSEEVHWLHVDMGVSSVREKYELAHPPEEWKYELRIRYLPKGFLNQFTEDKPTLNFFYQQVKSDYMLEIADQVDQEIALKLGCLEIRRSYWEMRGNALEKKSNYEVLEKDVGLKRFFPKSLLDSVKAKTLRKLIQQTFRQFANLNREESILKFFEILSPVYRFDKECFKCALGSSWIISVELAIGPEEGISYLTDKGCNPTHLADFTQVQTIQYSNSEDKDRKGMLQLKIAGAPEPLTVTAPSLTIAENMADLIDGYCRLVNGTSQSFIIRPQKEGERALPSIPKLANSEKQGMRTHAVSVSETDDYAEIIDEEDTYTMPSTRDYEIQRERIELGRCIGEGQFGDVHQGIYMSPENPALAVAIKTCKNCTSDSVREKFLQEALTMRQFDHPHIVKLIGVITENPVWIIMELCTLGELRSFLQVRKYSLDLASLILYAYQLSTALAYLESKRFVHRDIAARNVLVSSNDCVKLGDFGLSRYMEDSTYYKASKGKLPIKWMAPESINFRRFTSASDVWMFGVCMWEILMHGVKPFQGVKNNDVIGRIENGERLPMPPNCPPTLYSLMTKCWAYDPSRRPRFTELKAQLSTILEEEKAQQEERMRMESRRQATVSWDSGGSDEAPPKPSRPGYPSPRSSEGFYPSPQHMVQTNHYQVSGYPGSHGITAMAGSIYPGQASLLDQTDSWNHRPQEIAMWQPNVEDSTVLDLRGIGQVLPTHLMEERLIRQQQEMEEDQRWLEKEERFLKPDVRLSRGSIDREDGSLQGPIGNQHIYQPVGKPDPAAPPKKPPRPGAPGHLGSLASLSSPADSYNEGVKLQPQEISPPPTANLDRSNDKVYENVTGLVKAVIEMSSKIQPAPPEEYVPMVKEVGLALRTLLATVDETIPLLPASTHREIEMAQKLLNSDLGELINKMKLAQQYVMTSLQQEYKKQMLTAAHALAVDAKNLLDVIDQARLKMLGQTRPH
# FGFR2 = FGFR2 (Homo sapiens (Human), UniProt P21802)
# FLT3 (R834Q) = FLT3 (R834Q) (Homo sapiens (Human), UniProt P36888, R834Q)
# HIPK2 = HIPK2 (Homo sapiens (Human), UniProt Q9H2X6)
# KIT (V559D, T670I) = KIT (V559D, T670I) (Homo sapiens (Human), UniProt P10721, T670I/V559D)
# KIT (V559D, T670I), sequence (P10721 26-976 V559D/T670I): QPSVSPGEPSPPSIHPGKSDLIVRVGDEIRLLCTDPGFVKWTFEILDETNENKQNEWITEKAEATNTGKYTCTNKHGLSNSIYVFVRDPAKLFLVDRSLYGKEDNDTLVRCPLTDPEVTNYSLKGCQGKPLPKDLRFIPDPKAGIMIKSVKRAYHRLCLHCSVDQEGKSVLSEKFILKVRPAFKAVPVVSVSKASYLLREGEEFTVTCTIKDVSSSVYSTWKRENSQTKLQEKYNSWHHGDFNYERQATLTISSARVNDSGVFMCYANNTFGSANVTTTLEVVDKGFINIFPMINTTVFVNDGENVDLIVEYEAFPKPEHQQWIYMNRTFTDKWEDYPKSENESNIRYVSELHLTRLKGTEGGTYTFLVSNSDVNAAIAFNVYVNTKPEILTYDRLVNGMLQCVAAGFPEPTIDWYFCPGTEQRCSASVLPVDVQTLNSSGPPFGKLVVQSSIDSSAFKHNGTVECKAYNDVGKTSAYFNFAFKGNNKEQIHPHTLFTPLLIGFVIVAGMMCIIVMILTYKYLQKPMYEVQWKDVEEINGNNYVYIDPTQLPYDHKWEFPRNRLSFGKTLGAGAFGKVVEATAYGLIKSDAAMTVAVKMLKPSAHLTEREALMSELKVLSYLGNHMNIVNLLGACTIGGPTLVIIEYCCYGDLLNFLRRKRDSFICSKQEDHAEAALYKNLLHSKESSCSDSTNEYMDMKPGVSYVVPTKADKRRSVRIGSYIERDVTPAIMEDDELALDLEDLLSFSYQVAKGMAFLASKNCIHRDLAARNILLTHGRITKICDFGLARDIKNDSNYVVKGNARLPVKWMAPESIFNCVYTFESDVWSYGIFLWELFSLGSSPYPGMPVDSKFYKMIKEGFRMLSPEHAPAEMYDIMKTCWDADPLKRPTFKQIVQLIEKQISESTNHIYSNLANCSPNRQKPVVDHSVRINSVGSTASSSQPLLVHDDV
# LRRK2 = LRRK2 (Homo sapiens (Human), UniProt Q5S007)
# MARK3 = MARK3 (Homo sapiens (Human), UniProt P27448)
# MEK2 = MEK2 (Homo sapiens (Human), UniProt P36507)
# MEK2, sequence (P36507 whole entry): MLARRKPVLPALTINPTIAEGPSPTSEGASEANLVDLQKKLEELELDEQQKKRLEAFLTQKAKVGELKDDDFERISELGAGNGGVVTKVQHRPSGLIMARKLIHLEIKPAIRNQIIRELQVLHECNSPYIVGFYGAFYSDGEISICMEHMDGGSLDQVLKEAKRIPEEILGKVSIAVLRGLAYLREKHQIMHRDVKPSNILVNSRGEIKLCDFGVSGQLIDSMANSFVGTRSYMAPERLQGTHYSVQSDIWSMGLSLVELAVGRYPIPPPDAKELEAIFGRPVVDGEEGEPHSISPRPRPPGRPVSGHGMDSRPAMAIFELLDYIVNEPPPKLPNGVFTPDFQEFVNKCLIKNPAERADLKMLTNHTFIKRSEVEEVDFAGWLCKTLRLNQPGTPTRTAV
# MKK7 = MKK7 (Homo sapiens (Human), UniProt O14733)
# MLCK = MLCK (Homo sapiens (Human), UniProt Q32MK0)
# MLK3 = MLK3 (Homo sapiens (Human), UniProt Q16584)
# MYLK4 = MYLK4 (Homo sapiens (Human), UniProt Q86YV6)
# MYO3B = MYO3B (Homo sapiens (Human), UniProt Q8WXR4)
# PIP5K1A = PIP5K1A (Homo sapiens (Human), UniProt Q99755)
# PIP5K2C = PIP5K2C (Homo sapiens (Human), UniProt Q8TBX8)
# PRP4 = PRP4 (Homo sapiens (Human), UniProt Q13523)
# [1] = target: RPS6KA4 (Kin.Dom.1-N-terminal) (Homo sapiens (Human), UniProt O75676)
# RPS6KA4 (Kin.Dom.1-N-terminal), sequence (O75676 33-301): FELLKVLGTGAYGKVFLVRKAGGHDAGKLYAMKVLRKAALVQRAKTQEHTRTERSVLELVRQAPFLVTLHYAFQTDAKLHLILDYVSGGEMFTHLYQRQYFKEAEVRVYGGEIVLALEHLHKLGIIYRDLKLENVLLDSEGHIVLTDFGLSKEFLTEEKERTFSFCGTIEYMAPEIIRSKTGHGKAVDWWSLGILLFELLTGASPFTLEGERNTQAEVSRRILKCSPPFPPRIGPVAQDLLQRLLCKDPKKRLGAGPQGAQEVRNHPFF
# STK36 = STK36 (Homo sapiens (Human), UniProt Q9NRP7)
# TAK1 = TAK1 (Homo sapiens (Human), UniProt O43318)
# TIE1 = TIE1 (Homo sapiens (Human), UniProt P35590)
# TNIK = TNIK (Homo sapiens (Human), UniProt Q9UKE5)
# [2] = target: TYK2 (JH2domain-pseudokinase) (Homo sapiens (Human), UniProt P29597)
# TYK2 (JH2domain-pseudokinase), sequence (P29597 589-875): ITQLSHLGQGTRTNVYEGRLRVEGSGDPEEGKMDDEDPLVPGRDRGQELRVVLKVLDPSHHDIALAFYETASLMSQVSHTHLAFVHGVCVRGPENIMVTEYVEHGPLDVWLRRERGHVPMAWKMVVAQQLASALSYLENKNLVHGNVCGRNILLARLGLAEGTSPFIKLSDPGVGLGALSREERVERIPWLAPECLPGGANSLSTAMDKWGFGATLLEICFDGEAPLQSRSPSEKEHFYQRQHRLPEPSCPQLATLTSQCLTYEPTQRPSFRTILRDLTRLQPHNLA
# ULK2 = ULK2 (Homo sapiens (Human), UniProt Q8IYT8)
# AURKA, sequence (O14965 whole entry): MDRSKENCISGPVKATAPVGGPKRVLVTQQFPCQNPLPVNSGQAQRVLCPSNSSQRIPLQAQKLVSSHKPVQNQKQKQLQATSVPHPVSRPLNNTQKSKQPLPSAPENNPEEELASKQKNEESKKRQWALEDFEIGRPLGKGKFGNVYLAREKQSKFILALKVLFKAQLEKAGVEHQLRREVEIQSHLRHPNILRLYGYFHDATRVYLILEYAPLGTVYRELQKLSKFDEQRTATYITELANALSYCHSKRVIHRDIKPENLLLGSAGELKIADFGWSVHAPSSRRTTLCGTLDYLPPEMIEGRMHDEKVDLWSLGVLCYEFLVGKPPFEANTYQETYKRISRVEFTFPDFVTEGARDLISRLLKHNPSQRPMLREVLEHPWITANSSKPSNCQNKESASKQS
compound,measurement,setting,value
COc1ccc(N2C(=O)N(c3c(C)cccc3C)Cc3cnc(Nc4ccc(N5CCN(C)CC5)cc4)nc32)c(OC)c1 [HG-11-136-01],KINOMEscan ANKK1,ANKK1,68
same,KINOMEscan ASK2,ASK2,46
same,KINOMEscan AURKA,AURKA,0
same,KINOMEscan AXL,AXL,25
same,KINOMEscan BRSK1,BRSK1,100
same,KINOMEscan CDK4-cyclinD3,CDK4-cyclinD3,26
same,KINOMEscan CLK3,CLK3,78
same,KINOMEscan CLK4,CLK4,33
same,KINOMEscan CSF1R,CSF1R,0.35
same,KINOMEscan CSNK1G1,CSNK1G1,92
same,KINOMEscan DAPK3,DAPK3,63
same,KINOMEscan DRAK2,DRAK2,100
same,KINOMEscan EGFR (L861Q),EGFR (L861Q),0
same,KINOMEscan EIF2AK1,EIF2AK1,93
same,KINOMEscan EPHA5,EPHA5,0.6
same,KINOMEscan EPHA8,EPHA8,0.9
same,KINOMEscan EPHB4,EPHB4,0
same,KINOMEscan ERK4,ERK4,95
same,KINOMEscan FAK,FAK,24
same,KINOMEscan FGFR2,FGFR2,0.8
same,KINOMEscan FLT3 (R834Q),FLT3 (R834Q),48
same,KINOMEscan HIPK2,HIPK2,0.95
same,"KINOMEscan KIT (V559D, T670I)","KIT (V559D, T670I)",55
same,KINOMEscan LRRK2,LRRK2,21
same,KINOMEscan MARK3,MARK3,1.6
same,KINOMEscan MEK2,MEK2,0.2
same,KINOMEscan MKK7,MKK7,80
same,KINOMEscan MLCK,MLCK,100
same,KINOMEscan MLK3,MLK3,28
same,KINOMEscan MYLK4,MYLK4,60
same,KINOMEscan MYO3B,MYO3B,29
same,KINOMEscan PIP5K1A,PIP5K1A,14
same,KINOMEscan PIP5K2C,PIP5K2C,100
same,KINOMEscan PRP4,PRP4,100
same,KINOMEscan RPS6KA4 (Kin.Dom.1-N-terminal),[1],79
same,KINOMEscan STK36,STK36,0
same,KINOMEscan TAK1,TAK1,11
same,KINOMEscan TIE1,TIE1,30
same,KINOMEscan TNIK,TNIK,2.8
same,KINOMEscan TYK2 (JH2domain-pseudokinase),[2],1.2
same,KINOMEscan ULK2,ULK2,2.2
